Data: patent US8916550B2, “Compounds for modulating TRPV3 function” (Hydra Biosciences, Inc., priority 2005, dated 2014)

Tests used:
[1] = test system: Male Holtzman rats, thermal injury; experiment: Thermal injury model, thermal escape latency (Hargreaves); format: in vivo, rat
Experimental: The thermal injury model was used to evaluate the effectiveness of an exemplary TRPV3 inhibitor in the treatment of nociceptive pain. FIG. 1 provides a schematic representation of the protocol used to evaluate a TRPV3 inhibitor in the thermal injury model.
(§1) Briefly, the following protocol was followed. Male Holtzman rats (approximately 300 grams) were tested on thermal escape using a Hargreaves type apparatus. Under light anesthesia, a thermal injury (52° C. for 45 seconds) was applied to one heel. The animals were tested for thermal escape latency of the injured and uninjured paw before and at 30, 60, 80 and 120 minutes after injury. Drug (a TRPV3 inhibitor or morphine) or vehicle (0.5% methylcellulose) was administered after the baseline measurement and approximately 15-20 minutes prior to the thermal injury. In addition to the escape latency measurement, behavioral observations were made throughout the experiment.

Male Holtzman rats [2] = experiment: Behavioral deficits / side effects observed in thermal injury experiment (animals affected of n); format: in vivo, rat; conditions: for Blistered paw / Catalepsy / Corneal response / Exopthalmos / Pinna response / Spontaneous agitation / Tactile allodynia: 10 mg/kg
Experimental: as §1
Table A provides a comparison of the side-effects observed in rats following administration of TRPV3 inhibitor 64, at varying concentrations, versus the side-effects observed in rats administered 10 mg/kg of morphine. Side-effects of rats administered 0.5% methycellulouse were observed and served as a control.

[3] = test system: Male Holtzman rats, thermal injury; conditions: Table B comparators; based on our data as well as data available in the literature; cited from earlier work
[4] = test system: rats, carrageenan-injected hindpaw; conditions: Table B comparators; based on our data as well as data available in the literature; cited from earlier work
[5] = test system: rats, CFA injected hindpaw; conditions: Table B comparators; based on our data as well as data available in the literature; cited from earlier work
Male Holtzman rats [6] = conditions: Table B comparators; based on our data as well as data available in the literature; cited from earlier work
[7] = test system: Male Holtzmann rats, intraplantar formalin; conditions: Table B comparators; based on our data as well as data available in the literature; cited from earlier work

For `CN1CC[C@]23c4c5ccc(O)c4O[C@H]2[C@@H](O)C=C[C@H]3[C@H]1C5` [Morphine, morphine], the “Effect on escape latency of injured and un-injured paw” value ([1]; morphine (FIG. 4)) was “does have an effect on both the injured and un-injured paw”, the “Thermal escape latency after treatment” value ([1]; morphine, FIG. 4 legend) was “elevated above the baseline” and the Blistered paw (Male Holtzman rats [2]; Pre Injury Observation) was 0 of 7. The Catalepsy (Male Holtzman rats [2]; Pre Injury Observation) was 0 of 7, the Corneal response (Male Holtzman rats [2]; Pre Injury Observation) was 0 of 7 and the Exopthalmos (Male Holtzman rats [2]; Pre Injury Observation) was 0 of 7. For the same molecule, the Pinna response (Male Holtzman rats [2]; Pre Injury Observation) was 0 of 7, the Spontaneous agitation (Male Holtzman rats [2]; Pre Injury Observation) was 0 of 7 and the Tactile allodynia (Male Holtzman rats [2]; Pre Injury Observation) was 0 of 7. The Blistered paw (Male Holtzman rats [2]; t = 30 min) was 0 of 7, the Catalepsy (Male Holtzman rats [2]; t = 30 min) was 4 of 7 and the Corneal response (Male Holtzman rats [2]; t = 30 min) was 0 of 7. For the same molecule, the Exopthalmos (Male Holtzman rats [2]; t = 30 min) was 6 of 7, the Pinna response (Male Holtzman rats [2]; t = 30 min) was 5 of 7 and the Spontaneous agitation (Male Holtzman rats [2]; t = 30 min) was 0 of 7. The Tactile allodynia (Male Holtzman rats [2]; t = 30 min) was 0 of 7, the Blistered paw (Male Holtzman rats [2]; t = 60 min) was 0 of 7 and the Catalepsy (Male Holtzman rats [2]; t = 60 min) was 3 of 7. The Corneal response (Male Holtzman rats [2]; t = 60 min) was 0 of 7, the Exopthalmos (Male Holtzman rats [2]; t = 60 min) was 6 of 7 and the Pinna response (Male Holtzman rats [2]; t = 60 min) was 2 of 7. The Spontaneous agitation (Male Holtzman rats [2]; t = 60 min) was 0 of 7, the Tactile allodynia (Male Holtzman rats [2]; t = 60 min) was 0 of 7 and the Blistered paw (Male Holtzman rats [2]; t = 90 min) was 0 of 7. For the same molecule, the Catalepsy (Male Holtzman rats [2]; t = 90 min) was 1 of 7, the Corneal response (Male Holtzman rats [2]; t = 90 min) was 0 of 7 and the Exopthalmos (Male Holtzman rats [2]; t = 90 min) was 6 of 7. For the same molecule, the Pinna response (Male Holtzman rats [2]; t = 90 min) was 0 of 7, the Spontaneous agitation (Male Holtzman rats [2]; t = 90 min) was 0 of 7 and the Tactile allodynia (Male Holtzman rats [2]; t = 90 min) was 0 of 7. The Blistered paw (Male Holtzman rats [2]; t = 120 min) was 0 of 7, the Catalepsy (Male Holtzman rats [2]; t = 120 min) was 0 of 7 and the Corneal response (Male Holtzman rats [2]; t = 120 min) was 0 of 7. For the same molecule, the Exopthalmos (Male Holtzman rats [2]; t = 120 min) was 0 of 7, the Pinna response (Male Holtzman rats [2]; t = 120 min) was 0 of 7 and the Spontaneous agitation (Male Holtzman rats [2]; t = 120 min) was 0 of 7. The Tactile allodynia (Male Holtzman rats [2]; t = 120 min) was 0 of 7, the Side-effects of administration (Male Holtzman rats [2]; morphine 10 mg/kg) was “exopthalmos (bulging eyes), catalepsy (a near catatonic state), and the pinna response” and the Acute thermal injury [3] was “Effective”. The “Carrageenan Model” value [4] was “Effective”, the “CFA Model” value [5] was “Effective” and the Non-narcotic (Male Holtzman rats [6]) was “Narcotic”.

In the case of `O=C(NCc1ccc(C(F)(F)F)cc1)Nc1cccc2cnccc12` [TRPV1 Antagonist], the Acute thermal injury [3] is given as “Effective”, the “Formalin Model” value [7] is given as “Ineffective” and the “Carrageenan Model” value [4] is given as “Effective”. The “CFA Model” value [5] was “Effective”.
